We go through one compound from publication PMC4492750, “The discovery of a selective and potent A2a agonist with extended lung retention” (Pharmacology Research & Perspectives, 2015).

Data set [1] is described as follows: In vivo pharmacokinetics in rats (i.v., oral, intratracheal). Here is the method:
Rat PK was determined after an i.v. dose of 0.1μmol/kg (approximately 50μg/kg, 1ml/kg, TEG:H2O 50:50) given via a catheter in vena jugularis. The PK after oral administration was performed at a dose of 6μmol/kg (approximately 3mg/kg, 4ml/kg, 0.5% HPMC) given by gavage. Intratracheal PK was determined at 0.03 to 0.6μmol/kg (17 to 300μg/kg, 1ml/kg, in a vehicle containing sodium chloride (8.5mg/ml), EDTA (0.1mg/ml), citric acid (0.15mg/ml), sodium citrate (0.5mg/ml) and polysorbate 80 (0.2mg/mL) in purified water). The i.t. dose was given to anaesthetized (isofluran) rats, positioned at approximately 30° angle (head up) and the compound was administered in the trachea using a modified metal cannula. Rats were put back in their cages while regaining consciousness. Serial blood sampling of 100 to 200µl was performed after i.v. and p.o. dosing at pre-defined timepoints. Blood was mixed 1:4 with purified water containing heparin (10 to 30U/ml) in order to haemolyse the blood cells, and then placed in a 96-well plate and stored at –70°C until analysed. The dilution factor was accounted for in the data analysis. After i.t. dosing, animals were euthanized with isoflurane or pentobarbital at defined timepoints after dosing, blood samples taken from the vena jugularis or arteria carotis, handled and stored as described above. The rats were bled to drain as much blood as possible from the lungs. The lungs including the trachea were carefully dissected out with all non-relevant tissue removed, placed in pre-weighed vials and weighed. The lung vials were stored at –70°C until analyzed.
Lung tissue was frozen in liquid nitrogen and homogenised using a CryoPrep pneumatic hammer. The homogenisation of the tissue and the extraction of the compound were done in 4ml Ringer solution with an Adaptive Focused Acoustic Instrument. 50µl of the supernatant was transferred to a 96-well plate. All lung, blood and plasma samples were analysed by LC-MS/MS using a selective and sensitive method. Peak areas were used in comparison to those produced by the standard curve to determine parent compound concentrations. Homogenate concentrations were adjusted to account for the sample dilutions to give tissue concentrations.

Data set [2] concerns LPS-induced TNFα production in rat splenocytes. In words: LPS-induced TNFα production in rat mononuclear spleen cells (rTNFα splenocytes). Format: cell-based. The settings on record: Splenocyte. Here is the method: (§1) • Human A2a and A2b receptor pharmacology: Chinese hamster ovary CHO-K1 cells stably expressing human A2a and A2b receptors were used to determine substances agonistic potency and intrinsic activity. […] The signal corresponding to adenosine at 100 μmol/L was used to define 100% intrinsic activity. • Human A3 receptor pharmacology: A3 receptor Gi coupling was measured by GTPγ ^35[S] filter assay at serial dilutions of compound using membranes from Perkin-Elmer. The signal corresponding to the maximal response of NECA at 100 μmol/L was set to 100% intrinsic activity. • Lipopolysaccharide (LPS)-induced TNFα production in primary human peripheral blood mononuclear cells (hTNFα PBMC) and rat mononuclears (rTNFα splenocytes): Human PBMC and rat mononuclear spleen cells were incubated with serial dilutions of compound and stimulated with LPS.
Procedures and assays were run in R10 buffer (RPMI 1640 Medium supplemented with GlutaMAX™ and HEPES (GIBCO-BRL), 10% fetal calf serum, penicillin and streptomycin (each 5000IU/ml)). Human PBMC were purified from heparinised blood by Ficoll separation (Ficoll, Amersham Pharmacia Biotech AB, Cat: 17-1440-03, Lot: 312170) and rat mononuclear cells were collected after rat spleen perfusion. Both cell preparations were followed by hypotonic lysis of residual erythrocytes. Serial dilutions of compounds were pre-incubated with 200 000 cells/well (96-well plate) for 45min in 37 °C (190µl). Cells were stimulated by 10µl LPS (final concentration 0.5ng/ml human and 150ng/ml rat; SIGMA Cat: L-4516, Lot: 104K4036) for 18h at 37 °C. TNFα release was measured by ELISA (^TmR&D Systems plates) according to the manufacturer’s instructions in cell free supernatant.

Data set [3] can be described thus: Lipophilicity (LogD), shake flask. It is filed as physicochemical. To be noted: 1-octanol / phosphate buffer, octanol-water, phosphate buffer pH 7.4. Here is the method:
as §1
The octanol-water partition coefficient (LogD) was measured using the shake flask method. 600µL of 1-octanol was added to a vial with 6µL of 10mM DMSO-solution of the test compound. 600µL of 10mM sodium phosphate buffer adjusted to pH 7.4 was added and equilibrium was performed by vigorous shaking for ten minutes with an Eppendorf mixer. The phases were separated by centrifugation. The samples were analysed by HPLC with UV-detection at 254nm.

Regarding `CCNC(=O)[C@H]1O[C@@H](n2cnc3c(NC(CC)CC)nc(NCCNC(=O)Nc4cc[n+](C)cc4)nc32)[C@H](O)[C@@H]1O` [Compound 2, (2S,3S,4R,5R)-N-ethyl-5-[6-(1-ethylpropylamino)-2-[2-[(1-methylpyridin-1-ium-4-yl)carbamoylamino]ethylamino]purin-9-yl]-3,4-dihydroxy-tetrahydrofuran-2-carboxamide], the “Increase of rat lung t½ in comparison with UK-432,097” value in data set [1] (i.t.) came to 13 fold. The compound further had a Rat blood clearance in data set [1] (i.v., mean of n = 3) of 19 mL/min per kg. The half-life in data set [1] (lung, inhaled or intranasal, rat, intratracheal dosing, n = 2/time point, read-out: Lung t½ (terminal half-life in lung) (converted)) is 53 h. For the same compound, in data set [1] (other: intratracheal (i.t.), rat, i.t., ratio of lung concentration 24 h after dose to blood Cmax after same dose, read-out: Lung/blood split), the Kp at 24 h was 460. Also, in data set [1] (rat, single i.t. dose (17 and 20 μmol/kg for compounds 2 and 3 as printed in Fig. 5), 24 h), the “Percentage of dose remaining in lung at 24 h” value was 28%. For the same compound, the bioavailability in data set [1] (whole blood, 6 umol/kg, rat, oral, mean of n = 3, read-out: Rat oral F (bioavailability)) worked out at 0.3%. Moreover, in data set [2] (Rattus norvegicus, read-out: EC50, inhibition of LPS stimulated TNFα release in rat splenocytes), the half-maximal effective concentration (EC50) is 0.6 nM. In data set [2] (LPS-stimulated TNFα release, rat splenocytes, average (SD)), this compound yielded an IC50 of 0.6 nM. Besides, in data set [2] (LPS-stimulated TNFα release, rat splenocytes, average (SD), read-out: rTNFα splenocytes Intrinsic activity), the Emax worked out at 57.4%. Also, in data set [3], the pH-dependent lipophilicity (logD) at 10 min is less than -1.
